Source: ChEMBL document CHEMBL3832025, “DailyMed|setid=d3417226-1f42-40cd-82ac-bc31ddf79b97 | OFLOXACIN - ofloxacin tablet, film coated|PD-Rx Pharmaceuticals, Inc”
Values joined by “and” are separate entries in the source; they are usually repeats but may differ in a detail not shown here. Equal values may be shown once.

What was measured:
Type in all cases: ADME, organism-based
[1] = (§1) Steady-state pharmacokinetic parameters for Ofloxacin following multiple oral and intravenous (IV) doses of Ofloxacin to healthy 70 to 80 kg male volunteers.; set-up: dose 200 mg, dose 400 mg, dose 300 mg, route oral, route iv; settings: human, in vivo, dosed compound id 33, dosed compound name OFLOXACIN, regimen Multiple dose; for AUC: gender male, tissue Serum
Homo sapiens [2] = experiment: as §1; set-up: dose 200 mg, dose 400 mg, dose 300 mg, route oral, route iv; settings: in vivo, dosed compound id 33, dosed compound name OFLOXACIN, gender male, regimen Multiple dose, tissue Serum
[3] = (§2) Pharmcokinetic parameters for Ofloxacin following single oral dose administration of Ofloxacin to healthy male volunteers, body mass 70 to 80 kg.; set-up: dose 300 mg, dose 200 mg, dose 400 mg, route oral; settings: human, in vivo, dosed compound id 33, dosed compound name OFLOXACIN, regimen Single dose
Homo sapiens [4] = experiment: as §2; set-up: dose 300 mg, dose 200 mg, dose 400 mg, route oral; settings: in vivo, po, dosed compound id 33, dosed compound name OFLOXACIN, gender male, regimen Single dose, tissue Serum
[5] = male, route oral, tissue Plasma

Structure (SMILES): CC1COc2c(N3CCN(C)CC3)c(F)cc3c(=O)c(C(=O)O)cn1c23 (stereo not given) [OFLOXACIN]
- AUC ([1]; read-out: AUC(0 to 12) ss): 41200 ng·h/mL
- AUC ([1]; read-out: AUC(0 to inf) ss): 61000 ng·h/mL
- half-life ([1]; male, route oral, tissue Plasma, read-out: t1/2 ss): 4 to 5 h
- AUC(0 to 12) ss (Homo sapiens [2]; study dosing duration 60 minutes): 43500 ng·h/mL
- Cmax ss (Homo sapiens [2]; po): 2200 ng/mL and 3600 ng/mL and 4600 ng/mL
- Cmax ([3]; po, gender male, tissue Serum): 1500 ng/mL
- Tmax [3, 5]: 1 to 2 h
- bioavailability [3, 5]: 98%
- AUC(0 to inf) (Homo sapiens [4]): 14100 ng·h/mL and 21200 ng·h/mL and 31400 ng·h/mL
- Cmax (Homo sapiens [4]): 2400 ng/mL and 2900 ng/mL
